# Source: the supplement of paper PMC11061612
# What was measured:
# Test in all cases: combination Emax (second highest fraction inhibited in the dose matrix, 72 h); higher = more inhibition; extreme values may be limits of the assay
# [1] = test system: SK-N-FI (Neuroblastoma)
# Outline: (§1)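 Cell lines in DMEM/F12 or RPMI with 10% FBS were plated in 1536-well plates, held 24 hours at 37°C, 5% CO2, then given two-drug dose matrices for 72 hours (DMSO typically 0.2%). Viability was read by CellTiter-Glo 2.0 luminescence and scaled as inhibition from 0 (vehicle wells) to 1 (blank wells). Combination Emax is the second-highest inhibition in the matrix; Bliss excess is observed combination effect minus expected EA + EB − EA·EB, EA and EB being single-agent effects.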
# [2] = test system: C3A (Hepatocellular Carcinoma)
# Outline: as §1
# [3] = test system: LU-99A (Non-Small Cell Lung Carcinoma)
# Outline: as §1
# [4] = test system: COR-L23 (Non-Small Cell Lung Carcinoma)
# Outline: as §1
# [5] = test system: NCI-H1299 (Non-Small Cell Lung Carcinoma)
# Outline: as §1
# [6] = test system: NALM-6 (B-Lymphoblastic Leukemia)
# Outline: as §1
# [7] = test system: 697 (B-Lymphoblastic Leukemia)
# Outline: as §1
# [8] = test system: SN12C (Kidney Carcinoma)
# Outline: as §1
# [9] = test system: HCC2157 (Breast Carcinoma)
# Outline: as §1
# [10] = test system: TGBC24TKB (Biliary Tract Carcinoma)
# Outline: as §1
# [11] = test system: DMS-273 (Small Cell Lung Carcinoma)
# Outline: as §1
# [12] = test system: MFH-ino (Other Solid Carcinomas)
# Outline: as §1
# [13] = test system: MDA-MB-231 (Breast Carcinoma)
# Outline: as §1
# [14] = test system: IHH-4 (Thyroid Gland Carcinoma)
# Outline: as §1
# [15] = test system: OCI-AML2 (Acute Myeloid Leukemia)
# Outline: as §1
# [16] = test system: J82 (Bladder Carcinoma)
# Outline: as §1
# [17] = test system: SW1088 (Low Grade Glioma)
# Outline: as §1
# [18] = test system: SW1990 (Pancreatic Carcinoma)
# Outline: as §1
# [19] = test system: NCI-H1781 (Lung Adenocarcinoma)
# Outline: as §1
# [20] = test system: CFPAC-1 (Pancreatic Carcinoma)
# Outline: as §1
Structure (SMILES),combination Emax [1],combination Emax [2],combination Emax [3],combination Emax [4],combination Emax [5],combination Emax [6],combination Emax [7],combination Emax [8],combination Emax [9],combination Emax [10],combination Emax [11],combination Emax [12],combination Emax [13],combination Emax [14],combination Emax [15],combination Emax [16],combination Emax [17],combination Emax [18],combination Emax [19],combination Emax [20]
"C[C@@H]1COCCN1c1cc(C2([S@](C)(=N)=O)CC2)nc(-c2ccnc3[nH]ccc23)n1 [AZD6738] + O=C(c1cc(Cc2n[nH]c(=O)c3ccccc23)ccc1F)N1CCN(C(=O)C2CC2)CC1 [Olaparib] (first compound max 10 µM, 7x7, partner max 10 µM)",0.701,0.429,0.712,0.42,0.666,0.976,1,0.249,0.907,0.693,0.721,0.576,0.572,0.773,0.988,0.344,0.501,0.471,0.59,–
"Cc1c2c(nn1C)CSCc1cc(n(C)n1)CSc1cc(c3ccccc3c1)OCCCc1c(C(=O)O)n(C)c3c-2c(Cl)ccc13 [AZD5991] + CN(C)CCCOc1ccc(-c2ccc3ncc4c(c3c2)n(C2CCOCC2)c(=O)n4C)cn1 [AZD0156] (first compound max 1 µM, 7x7, partner max 1 µM)",0.443,0.198,0.334,–,0.368,0.408,1,0.222,0.98,0.165,0.976,0.22,0.351,0.265,0.961,0.22,0.242,0.241,0.665,0.209
"C[C@@H](c1ccc2nccn2c1)n1nnc2ncc(-c3cnn(C)c3)nc21 [Savolitinib] + CN(CC[C@H](CSC1=CC=CC=C1)NC2=C(C=C(C=C2)S(=O)(=O)NC(=O)C3=CC=C(C=C3)N4CCC(CC4)[C@H](C5=CC=CC=C5C6=CC=C(C=C6)Cl)O)S(=O)(=O)C(F)(F)F)CCO [AZD4320] (first compound max 1 µM, 7x7, partner max 1 µM)",–,0.183,0.245,0.184,–,–,1,–,0.934,0.561,0.185,–,–,–,–,0.604,–,–,0.287,0.143
"Cc1c2c(nn1C)CSCc1cc(n(C)n1)CSc1cc(c3ccccc3c1)OCCCc1c(C(=O)O)n(C)c3c-2c(Cl)ccc13 [AZD5991] + C=CCn1c(=O)c2cnc(Nc3ccc(N4CCN(C)CC4)cc3)nc2n1-c1cccc(C(C)(C)O)n1 [AZD1775] (first compound max 1 µM, partner max 1 µM)",0.744,–,0.428,0.605,0.83,0.878,1,0.358,0.979,0.672,0.987,0.31,0.418,0.684,1,0.314,0.352,0.537,0.65,0.555
"C=CCn1c(=O)c2cnc(Nc3ccc(N4CCN(C)CC4)cc3)nc2n1-c1cccc(C(C)(C)O)n1 [AZD1775] + C1CN(CCC1(C(=O)N[C@@H](CCO)C2=CC=C(C=C2)Cl)N)C3=NC=NC4=C3C=CN4 [Capivasertib] (first compound max 3 µM, partner max 3 µM)",0.628,0.62,0.623,0.895,0.793,0.985,1,0.359,–,0.811,0.896,0.35,0.624,0.91,0.988,0.468,0.723,0.584,0.858,0.723
"CCc1c2c(nc3ccc(O)cc13)-c1cc3c(c(=O)n1C2)COC(=O)[C@]3(O)CC [SN-38] + O=C(c1cc(Cc2n[nH]c(=O)c3ccccc23)ccc1F)N1CCN(C(=O)C2CC2)CC1 [Olaparib] (first compound max 0.3 µM, 7x7, partner max 10 µM)",0.518,0.665,0.649,0.675,0.544,0.99,1,0.738,–,0.472,0.799,0.652,0.681,0.921,0.999,0.861,0.434,0.419,1,0.831
"CC(=O)c1c(C)c2cnc(Nc3ccc(N4CCNCC4)cn3)nc2n(C2CCCC2)c1=O [Palbociclib] + CN(CC[C@H](CSC1=CC=CC=C1)NC2=C(C=C(C=C2)S(=O)(=O)NC(=O)C3=CC=C(C=C3)N4CCC(CC4)[C@H](C5=CC=CC=C5C6=CC=C(C=C6)Cl)O)S(=O)(=O)C(F)(F)F)CCO [AZD4320] (first compound max 10 µM, 7x7, partner max 1 µM)",–,0.639,0.297,0.298,–,–,1,–,0.994,0.736,0.306,–,–,–,–,0.22,–,–,0.476,0.419
